The record followed here is ChEMBL document CHEMBL1142620, “Anthraquinones and betaenone derivatives from the sponge-associated fungus Microsphaeropsis species: novel inhibitors of protein kinases” (J Nat Prod, 2000).

Each structure is given as a SMILES string.

Assay [1] concerns the target T1, Protein kinase C epsilon type (Mus musculus, UniProt P16054).
T1 sequence (P16054 whole entry): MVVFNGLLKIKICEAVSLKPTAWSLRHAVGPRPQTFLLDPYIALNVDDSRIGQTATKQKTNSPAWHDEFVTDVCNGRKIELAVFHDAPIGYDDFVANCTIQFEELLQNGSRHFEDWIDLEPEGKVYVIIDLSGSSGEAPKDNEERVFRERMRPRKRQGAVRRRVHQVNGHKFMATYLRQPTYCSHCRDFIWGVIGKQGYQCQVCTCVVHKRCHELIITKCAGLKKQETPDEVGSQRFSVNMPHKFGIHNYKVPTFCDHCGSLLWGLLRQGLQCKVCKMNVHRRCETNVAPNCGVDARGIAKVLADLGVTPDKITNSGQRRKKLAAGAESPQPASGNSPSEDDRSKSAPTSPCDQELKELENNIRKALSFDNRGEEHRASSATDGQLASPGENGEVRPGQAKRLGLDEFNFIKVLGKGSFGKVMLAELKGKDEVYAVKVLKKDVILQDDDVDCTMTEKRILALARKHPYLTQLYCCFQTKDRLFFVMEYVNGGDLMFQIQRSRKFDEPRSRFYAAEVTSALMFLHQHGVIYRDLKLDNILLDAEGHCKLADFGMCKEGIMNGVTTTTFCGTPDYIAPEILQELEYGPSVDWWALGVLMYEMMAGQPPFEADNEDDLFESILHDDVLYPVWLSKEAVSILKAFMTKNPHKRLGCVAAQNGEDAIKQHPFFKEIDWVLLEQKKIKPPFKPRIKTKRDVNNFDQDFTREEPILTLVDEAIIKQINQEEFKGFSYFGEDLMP
Nature of the assay: Inhibition of mouse recombinant PKCepsilon expressed in Sf9 insect cells.

Assay [2] deals with Epidermal growth factor receptor (Homo sapiens, UniProt P00533). Nature of the assay: Inhibition of human recombinant EGFR kinase expressed in Sf9 insect cells.
Assay [3] has as its target Cyclin-dependent kinase 4/cyclin D1 (Homo sapiens, UniProt P11802). The assay is described as follows: Inhibition of human recombinant CDK4/cyclin D1 kinase expressed in Sf9 insect cells.

Chain of Epidermal growth factor receptor (P00533 whole entry): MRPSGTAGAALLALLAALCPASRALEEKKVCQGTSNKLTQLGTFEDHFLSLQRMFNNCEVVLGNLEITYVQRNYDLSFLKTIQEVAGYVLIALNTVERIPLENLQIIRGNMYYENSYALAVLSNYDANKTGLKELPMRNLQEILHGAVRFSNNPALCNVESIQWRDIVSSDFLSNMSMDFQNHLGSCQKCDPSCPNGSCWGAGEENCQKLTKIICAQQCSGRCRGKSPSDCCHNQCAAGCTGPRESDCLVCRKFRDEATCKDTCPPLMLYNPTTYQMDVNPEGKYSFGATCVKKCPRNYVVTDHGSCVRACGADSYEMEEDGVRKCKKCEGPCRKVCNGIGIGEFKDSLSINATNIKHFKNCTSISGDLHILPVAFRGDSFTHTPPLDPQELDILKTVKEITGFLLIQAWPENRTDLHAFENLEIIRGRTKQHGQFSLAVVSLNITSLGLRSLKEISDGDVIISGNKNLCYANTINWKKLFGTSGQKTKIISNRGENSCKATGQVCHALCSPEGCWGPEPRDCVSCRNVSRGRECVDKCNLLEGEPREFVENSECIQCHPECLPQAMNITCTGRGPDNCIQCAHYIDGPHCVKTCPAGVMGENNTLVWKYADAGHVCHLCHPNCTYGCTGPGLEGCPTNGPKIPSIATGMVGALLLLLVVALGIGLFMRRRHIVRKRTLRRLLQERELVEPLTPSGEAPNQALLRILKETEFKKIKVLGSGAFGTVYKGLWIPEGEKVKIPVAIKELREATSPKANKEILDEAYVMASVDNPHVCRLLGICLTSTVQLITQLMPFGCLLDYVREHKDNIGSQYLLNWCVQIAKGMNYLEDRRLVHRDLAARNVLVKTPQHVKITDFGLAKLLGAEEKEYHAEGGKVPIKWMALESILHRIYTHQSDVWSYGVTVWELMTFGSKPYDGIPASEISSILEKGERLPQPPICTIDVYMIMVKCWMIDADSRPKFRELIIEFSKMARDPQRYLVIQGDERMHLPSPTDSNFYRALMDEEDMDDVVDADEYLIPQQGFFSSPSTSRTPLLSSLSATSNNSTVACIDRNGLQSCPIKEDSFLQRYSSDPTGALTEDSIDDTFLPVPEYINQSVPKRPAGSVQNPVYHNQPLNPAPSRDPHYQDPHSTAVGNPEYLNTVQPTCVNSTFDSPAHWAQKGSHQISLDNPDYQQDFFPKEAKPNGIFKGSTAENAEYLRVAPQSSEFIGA
Chain of Cyclin-dependent kinase 4/cyclin D1 (P11802 whole entry): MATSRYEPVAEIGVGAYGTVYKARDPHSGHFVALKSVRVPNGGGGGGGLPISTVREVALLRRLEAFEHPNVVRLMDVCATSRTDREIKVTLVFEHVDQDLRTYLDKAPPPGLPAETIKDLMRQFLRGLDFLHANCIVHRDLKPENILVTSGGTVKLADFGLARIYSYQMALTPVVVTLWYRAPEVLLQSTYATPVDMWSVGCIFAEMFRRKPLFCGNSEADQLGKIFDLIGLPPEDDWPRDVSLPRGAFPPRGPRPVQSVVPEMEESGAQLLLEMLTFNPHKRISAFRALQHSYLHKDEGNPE
Chain of Cyclin-dependent kinase 4/cyclin D1 (P24385 whole entry, further chain): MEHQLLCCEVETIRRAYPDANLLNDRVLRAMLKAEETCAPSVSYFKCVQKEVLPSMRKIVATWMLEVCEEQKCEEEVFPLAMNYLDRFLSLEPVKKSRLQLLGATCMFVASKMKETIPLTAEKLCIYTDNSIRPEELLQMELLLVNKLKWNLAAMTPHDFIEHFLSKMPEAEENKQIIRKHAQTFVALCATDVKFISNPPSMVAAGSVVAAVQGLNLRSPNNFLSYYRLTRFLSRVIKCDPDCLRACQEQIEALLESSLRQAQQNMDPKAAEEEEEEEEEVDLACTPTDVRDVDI

The term IC50 denotes the concentration needed to halve the response being measured. For `CCC(C)[C@@H]1[C@@](C)(C(=O)/C=C/N(c2ccccc2)c2ccc3ccccc3c2)[C@H]2[C@H](C)C[C@@](C)(O)C[C@]2(O)C(=O)[C@@]1(C)O` (stereo not given in full), the IC50 in assay [1], in assay [2] and in assay [3] was above 100 µM each time.

Turning to `CCC(C)[C@@H]1[C@@](C)(C(=O)/C=C/OC)[C@H]2[C@H](C)C[C@@](C)(O)C[C@]2(O)C(=O)[C@@]1(C)O` (stereo not given in full), the results for the IC50 in assay [1], in assay [2] and in assay [3] were 36 µM, 10.5 µM and 11.5 µM, respectively.

For the molecule `CO[C@H](C)c1c(O)cc2c(c1O)C(=O)c1c(O)cc(O)cc1C2=O`, the IC50 turned out to be 27 µM in assay [1], 27.5 µM in assay [2] and 22.5 µM in assay [3].

On to `CO[C@H](C)c1c(O)cc2c(c1O)C(=O)c1c(cc(O)c(O)c1O)C2=O`, for which the IC50 in assay [1] was 54 µM; in assay [2] it was 41 µM; in assay [3], 37.5 µM.

In the case of `C[C@@H](O)c1c(O)cc2c(c1O)C(=O)c1c(O)cc(O)cc1C2=O`, the IC50 in assay [1] came out at 18.5 µM; in assay [2] it was 37.5 µM; in assay [3] it was 43.5 µM.
